Measurements from US10364249B2, “Azatriangulenium salts as PET-quenched fluorescent probes” (KØBENHAVNS UNIVERSITET, priority 2013, dated 2019).
Read-outs that look alike come from different tables or passages of the source.

Assays:
Type in all cases: physicochemical
[1] = Absorption and emission spectra, photophysical properties of pH-responsive triangulenium dyes in solution; set-up: λmax (wavelength of maximum absorption) / λem (wavelength of maximum emission): unit not given here; conditions: for λem (wavelength of maximum emission) / λmax (wavelength of maximum absorption) / pKa: in solution; for ϕfl- (φfl-off, fluorescence quantum yield, off-state): off-state (quenched); for ϕfl- (φfl-on, fluorescence quantum yield, on-state): on-state (not quenched)
Description: Absorption and emission spectrum of the prepared triangulenium compounds of Formula (I) were measured and their photophysical properties are compiled in table 2.
pKa is −log10 of the acid dissociation constant, Ka, and is a quantitative measure of the strength of an acid in solution. λmax denotes the wavelength wherein maximum absorption is obtained. λem denotes the wavelength wherein maximum emission is obtained. φfl-on and φfl-off are the fluorescence quantum yields, wherein the responsive fluorescent compounds are in their on-state (not quenched) and off-state (quenched), respectively. Ion/Ioff is the ratio between φfl-on and φfl-off.
All disclosed absorption and emission spectrum measurement shown herein are measured as follows:
(§1) Emission spectroscopy was performed in front-face set-up for sensor spot samples and in a conventional L-shape set-up for measuremetns in solution. A Perkin-Elmer LS50B and a Horiba Fluorolog 3 were used interchangeably. Intensity based sensor measurements were only performed on the LS50B platform. Fluorescence lifetime based sensor measurements were only performed on the Fluorolog 3. Absorption spectroscopy was performed on a Perkin Elmer Lambda1050, with integrating sphere (for sensor spots) and with a 3-detector module for solution samples.

[2] = Ratiometric emission of pH sensor spot with dyes bound into SOL-GEL-matrix at different pH; conditions: for pKa from ratiometric emission signal: with R1C
Description: FIG. 9. Emission spectra of a pH sensor spot loaded with I1C (signal at ca. 590 nm) and R1C (signal at ca. 650 nm) covalently bound into the SOL-GEL-matrix recorded at different pH values (solid line: pH 2.48, circles: pH 6.26, crosses: 9.89).
as §1
The compounds according to 6 or 7 are mixed into either the ETEOS or the GPTMS gel component 1 h after mixing of the materials described. Subsequently, the ETEOS or the GPTMS gel components are mixed. The two components are then mixed in 1:1 molar ratio and left at a stirring table for no less than 3 days. The dyes 6 or 7 are added in an amount so that a final concentration of 0.1 mM of dye is obtained in the final GPTMS-ETEOS mixture. The resulting GPTMS-ETEOS-dye mixture is then deposited and cured at 110° C. for 3-4 hours.

[3] = Photophysical properties and pKa of DAOTA dyes, fluorescence intensity at different pH, 6% DMSO in PBS buffer; conditions: for pKa: 6% DMSO in PBS buffer solution, normalized fluorescence intensity at 588 nm at different pH, sigmoidal fits (FIG. 8)
Text: FIG. 6. Absorption spectra of MR-68_DAOTA measured in 6% DMSO in PBS buffer solution. Circles (o) represent the absorption spectrum of the protonated form (measured at acidic conditions) and crosses (x) represent the absorption spectrum of the deprotonated form (measured at basic conditions).
FIG. 7. Emission spectra of MR-68_DAOTA measured in 6% DMSO in PBS buffer solution. Circles (o) represent the absorption spectrum of the protonated form (measured at acidic conditions) and crosses (x) represent the absorption spectrum of the deprotonated form (measured at basic conditions).
FIG. 8. […] The solid lines are sigmoidal fits to the experimental data.
as §1

[4] = Readout and chemical stability of optical sensor of DMQA+ and 4g in ORMOSIL matrix
Description: In order to validate the sensor performance, different stability tests were performed. One critical parameter for an optical sensor is known to be the read-out stability. Another critical parameter for optical sensors is the chemical stability.

[5] = Comparison of solution and sol-gel spectra and titration curves of 4g; conditions: upon attaching to the matrix material
Text: The arrow indicates the change from pH˜11 to pH˜1.

[6] = covalently bound into the SOL-GEL-matrix
[7] = first value of cell, protonated form
[8] = second value of cell, deprotonated form

Compound | λem (wavelength of maximum emission) [1] | λmax (wavelength of maximum absorption) [1] | Ion/Io (Ion/Ioff, ratio between φfl-on and φfl-off) [1] | pKa [1] | ϕfl- (φfl-off, fluorescence quantum yield, off-state) [1] [%] | ϕfl- (φfl-on, fluorescence quantum yield, on-state) [1] [%] | η, quenching efficiency of the fluorescence intensity [3] [%] | pKa [3] | εmax, molar absorption coefficient [3, 7] | λ max, wavelength at the maximum fluorescence intensity [3, 7] | λabs max, wavelength at maximum absorption of the lowest energy transition [3, 7] [nm] | εmax, molar absorption coefficient [3, 8] | λ max, wavelength at the maximum fluorescence intensity [3, 8] | λabs max, wavelength at maximum absorption of the lowest energy transition [3, 8] [nm] | also measured
CCCCCCCCCCCCN1c2cccc3c2C2c4c(cccc4N(c4cc(F)ccc4O)c4cccc1c42)O3 (stereo not drawn) [Compound 4f, 4-dodecyl-8-(5-fluoro-2-hydroxyphenyl)-4,8-diaza-12-oxa-4,8,12,12c-tetrahydro-dibenzo[cd,mn]-pyrenylium] | 590 | 557 |  |  |  |  |  |  |  |  |  |  |  |  | 
Oc1cccc(N2c3cccc4c3C3c5c(cccc5Oc5cccc2c53)O4)c1 [Compound 3c, N-(3-hydroxyphenyl)-azadioxatriangulenium tetrafluoroborat] | 558 | 540 | ~50 | 7.3 | >0.5 | 8 |  |  |  |  |  |  |  |  | 
8-(1-methyl-1-propyl-3-(3-(triethoxysilyl)propyl)urea)-4,8-diazatriangulenium-4-(4-(methylsulfonyl)phenolate) [Compound I2C] |  |  |  |  |  |  |  |  |  |  |  |  |  |  | pKa from ratiometric emission signal [2, 6]: 5.4
Oc1ccccc1N1c2cccc3c2C2c4c(cccc4Oc4cccc1c42)O3 [Compound 3b, N-(2-hydroxyphenyl)-azadioxatriangulenium tetrafluoroborat] | 558 | 541 | ~50 | 6.9 | >0.5 | 8 |  |  |  |  |  |  |  |  | 
Oc1ccc(N2c3cccc4c3C3c5c(cccc5Oc5cccc2c53)O4)cc1 [Compound 3d] | 563 | 540 | ~50 | 8.3 | >0.5 | 2 |  |  |  |  |  |  |  |  | 
CN1c2cccc3c2C2c4c(cccc4N(c4ccc(O)cc4)c4cccc1c42)O3 (stereo not drawn) [MR-93_DAOTA] |  |  |  |  |  |  | >99 | 8.6 | 14400 M⁻¹ cm⁻¹ | 591/591 nm | 555 | 14100 M⁻¹ cm⁻¹ | 591/591 nm | 560 | 
CCCCCCCCCCCCn1c2cccc3oc4cccc5c4[c+](c32)c2c1cccc2n5-c1cc(C(F)(F)F)ccc1O [Compound 4h, N-(2-hydroxy-5-(trifluoromethyI)phenyl)-N-dodecyl-diazaoxatriangulenium hexafluorophosphat] | 590 | 557 | ~50 | 6.5 |  |  |  |  |  |  |  |  |  |  | 
CCCCCCCCCCCCN1c2cccc3c2C2c4c(cccc4N(c4cc(S(C)(=O)=O)ccc4O)c4cccc1c42)O3 (stereo not drawn) [Compound 4g, 4-dodecyl-8-(2-hydroxy-5-(methylsulfonyl)phenyl)-4,8-diaza-12-oxa-4,8,12,12c-tetrahydro-dibenzo[cd,mn]-pyrenylium] | 590 | 557 | ~100 | 3.4 | 6 | 26 |  |  |  |  |  |  |  |  | responsiveness of ratiometric readout signal ([4]; constant illumination, low and high pH): maintains its responsiveness; ratiometric readout signal stable for ([4]; high and low pH): at least 16 hours; spectral change and pH response, solution versus sol-gel [5]: spectral change is minimal while the response to changing pH is maintained
CN1c2cccc3c2C2c4c(cccc4N(c4cccc(O)c4)c4cccc1c42)O3 (stereo not drawn) |  |  |  |  |  |  | 99 | 8.5 | 13600 M⁻¹ cm⁻¹ | 590/590 nm | 554 | 13500 M⁻¹ cm⁻¹ | 590/590 nm | 559 | 
CCO[Si](CCCNC(=O)N(C)CCCn1c2cccc(OC)c2[c+]2c3c(OC)cccc3n(CCCN(C)C(=O)NCCC[Si](OCC)(OCC)OCC)c3cccc1c32)(OCC)OCC [Compound R1C, 5,9-bis(4,4-diethoxy-10-methyl-9-oxo-3-oxa-8,10-diaza-4-silatridecan-13-yl)-1,13-dimethoxy-5,9-dihydro-13bH-quinolino[2,3,4-kl]acridin-13b-ylium hexafluorophosphate] |  |  |  |  |  |  |  |  |  |  |  |  |  |  | emission signal [2]: ca. 650 nm
CN1c2cccc3c2C2c4c(cccc4N(c4cc(O)cc(C(F)(F)F)c4)c4cccc1c42)O3 (stereo not drawn) [MR-67.1_DAOTA] |  |  |  |  |  |  | 99 | 7.3 | 14700 M⁻¹ cm⁻¹ | 586 nm | 553 | 14300 M⁻¹ cm⁻¹ | 588 nm | 557 | 
8-(1-methyl-1-propyl-3-(3-(triethoxysilyl)propyl)urea)-4,8-diazatriangulenium-4-(4-(trifluoromethyl)phenolate) [Compound I1C] |  |  |  |  |  |  |  |  |  |  |  |  |  |  | emission signal ([2]; pH sensor spot, covalently bound into the SOL-GEL-matrix): ca. 590 nm; pKa from ratiometric emission signal [2, 6]: 6.3
CN1c2cccc3c2C2c4c(cccc4N(c4cc(C(F)(F)F)ccc4O)c4cccc1c42)O3 (stereo not drawn) [MR-66_DAOTA] |  |  |  |  |  |  | >99 | 6.2 | 16600/16600 M^−1cm^−1 | 585 nm | 553 | 16600/16600 M^−1cm^−1 | 588 nm | 558 | 
